Common to all, as to assay type: cell-based
Test [1] concerns A375 melanoma cells. The experiment in a line: 3H-cholesterol efflux assay. The conditions noted are these: BLT-1 1 μM; acceptors 500 nM. The method, then: A375 cells were cultured in DMEM containing 1 μCi/mL [1,2,-^3H] cholesterol (Perkin-Elmer) overnight to label the cellular cholesterol pool. Cells were then washed in PBS and resuspended in serum free media. Human HDL or HDL NPs were added to the culture media and allowed to incubate for 6 hours. Cell culture media was then collected and subjected to liquid scintillation counting. The percentage of cholesterol efflux was determined by using the formula counts media/(counts cells+counts media)×100. Efflux of cholesterol in the absence of an acceptor was also measured and interpreted along with other results.

Test [2] concerns A375 melanoma cells. The experiment in a line: Exosome uptake assay (DiI-labeled exosomes, flow cytometry / fluorescence microscopy). The note with it: 24 hrs treatment. The method, then:
A375 melanoma exosomes were isolated from conditioned media using differential ultracentrifugation [Thery et al. 2006]. In brief, cells were cultured in exosome deficient media for 72 hours at which point the cell culture media was collected and centrifuged at 2000×g to remove dead cells and debris. Next, larger vesicles and cell debris were removed by centrifugation at 10,000×g for 30 minutes. Exosomes were then pelleted by centrifugation at 100,000×g for 70 minutes, and subsequently washed in PBS by another 100,000×g centrifugation step for 70 minutes. Exosomes were re-suspended in PBS. Protein concentration of exosomes was analyzed by BCA Protein assay (Thermo Scientific). […] In order to test if HDL NPs quenched exosome fluorescence, we incubated HDL NPs with fluorescently labeled exosomes for 4 hours and then measured the fluorescent signal.
The cellular uptake of exosomes was measured by fluorescence microscopy and flow cytometry after cell treatments. […] For fluorescence microscopy experiments, cells were plated on coverslips coated with 0.1% gelatin. Exosome uptake was measured over the course of 24 hours using a BD LSR Fortessa flow cytometer (Robert H. Lurie Comprehensive Cancer Center Flow Cytometry Core) or a Nikon A1R fluorescence microscope (Northwestern University Nikon Imaging Facility).

The target of test [3] is T1, GFP-SR-B1 (Homo sapiens, UniProt Q8WTV0).
T1 construct: expressed in transfected cells
T1 sequence (Q8WTV0 1-552): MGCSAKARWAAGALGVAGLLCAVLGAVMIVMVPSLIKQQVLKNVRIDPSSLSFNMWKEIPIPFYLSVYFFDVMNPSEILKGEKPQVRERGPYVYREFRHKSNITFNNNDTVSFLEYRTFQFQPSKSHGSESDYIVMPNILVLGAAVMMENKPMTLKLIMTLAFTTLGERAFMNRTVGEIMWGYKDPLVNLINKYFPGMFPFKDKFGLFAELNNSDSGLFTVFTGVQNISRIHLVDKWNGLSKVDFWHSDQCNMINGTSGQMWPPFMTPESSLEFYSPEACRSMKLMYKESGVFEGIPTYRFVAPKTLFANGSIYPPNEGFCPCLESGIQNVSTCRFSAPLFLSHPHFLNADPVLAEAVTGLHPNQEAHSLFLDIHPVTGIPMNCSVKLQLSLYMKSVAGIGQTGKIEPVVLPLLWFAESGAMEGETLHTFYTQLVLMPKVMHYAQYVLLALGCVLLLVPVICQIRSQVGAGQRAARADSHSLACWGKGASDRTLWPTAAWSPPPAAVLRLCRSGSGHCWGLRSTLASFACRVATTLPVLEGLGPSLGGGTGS
Kind of test: GFP-SR-B1 clustering and dynamics (confocal imaging, computer vision analysis). The conditions noted are these: A375 cells expressing GFP-SR-B1, 24 hrs treatment. The source says:
A semi-automated approach using ImageJ software was employed to identify the areas of GFP-SR-B1 in the images. After background subtraction, an unsharp mask filter with a large radius was applied to locally enhance contrast. Manual thresholding of filtered images was then used to generate a segment mask, which could be overlaid on the original, background subtracted image to facilitate measurement of domain parameters such as area and mean intensity. […]
To calculate the linearity of the motion, we introduced a parameter rho (FIG. 3C), which is calculated as the ratio between the head-to-tail (first point to the end point) trajectory distance divided by the total distance traveled by fluorescent domains. […]
Fluorescence microscopy was performed using an A1R confocal microscope with assistance from the Northwestern University Center for Advanced Microscopy. Images were analyzed using NIS Elements (Nikon) and ImageJ (NIH) software. Live cell confocal fluorescence microscopy to assess lipid raft dynamics was performed with a Nikon Eclipse T1 microscope equipped with an Andor iXon Ultra 897 camera and analyzed using Metamorph software (Molecular Devices).

Take `CCCCCCC1CCCC1=NNC(N)=S` (stereo not drawn) [BLT-1, Blocks Lipid Transport 1]: the “3H-cholesterol efflux to hHDL and HDL NP with BLT-1 treatment” value in test [1] was “reduced efflux to both hHDLs and HDL NPs”. Besides, the “inhibition of cellular exosome uptake” value in test [2] is “did not result in the inhibition of exosome uptake”. Also, the “clustering of GFP-SR-B1” value in test [3] is listed as “did not result in the inhibition of exosome uptake or clustering of the receptor”.

The values above are taken from US10413565B2, “Nanostructures for modulating intercellular communication and uses thereof” (Northwestern University, priority 2014, dated 2019).
